# Experimental data published in patent US9028887B2, “Method improve spatial memory via pterostilbene administration” (The United States of America, as represented by the …, priority 2007, dated 2015).
# Test system: M1-transfected COS-7 cells
# Experiment: Calcium recovery in M1-transfected COS-7 cells after dopamine treatment and oxotremorine-induced depolarization
# Type: cell-based, African green monkey
# Details: then 1 mM dopamine 4 hours, 750 μM oxotremorine depolarization
# Procedure: COS-7 cells, a cell line derived from African green monkey kidney, were grown in Dulbecco's Modified Eagle's Medium (D-MEM) supplemented with 10% fetal bovine serum (FBS) and containing 100 U/ml penicillin and 100 μg/ml streptomycin sulfate. Twenty four hours prior to transfection, cells were harvested with trypsin, counted, and plated on […] tissue culture plates at 5×10^6 cells/plate. Cells were transiently transfected with rat muscarinic receptor subtype 1 DNA by the DEAE-dextran method. After transfection, cells were incubated 2.5 hours in growth medium containing 80 μM chloroquine to minimize degradation of the DNA. Transfected cells were then maintained in growth medium for 48 hours, harvested with trypsin, plated to coverslips in 35 mm plates for calcium imaging, and incubated overnight.
# Dis. 6:403-411, and hereby incorporated by reference. The BB extract and stilbenes were dissolved in growth media and cells were subsequently incubated for 45 minutes at 37° C. with the treated growth medium, followed by dopamine administration for 4 hours. Following these incubations, the cells were washed three times with extract-free growth medium prior to testing.
# Calcium imaging was carried out using a Medical Systems Corp. open perfusion micro-incubator (37° C.) with temperature control that was mounted on the stage of a Nikon Eclipse TE200U microscope and illuminated with a fluorescent light source. Transfected cells were loaded with Fura-2/acetoxymethyl ester (2 μM) in loading medium (99% DMEM 1% FES) for 40 minutes at 37° C. with 5% CO2.
# Real time analyses of calcium flux prior to and following 750 μM oxotremorine-induced depolarization were then carried out using Simple PCI software (Compix, Inc. Mars, Pa.). Response and recovery were then determined for each sample. […] Recovery was determined by assessing the time (within 300 sec) for the Ca^2+ levels to return to 20% of the increase following depolarization in the cells that responded. Data was analyzed by Kruskal-Wallis one-way analysis of variance and Mann-Whitney U tests.
SMILES,protection against dopamine-induced decreases in Ca2+ Recovery (10 μg/ml pre-treatment 45 min),protection against dopamine-induced decreases in Ca2+ Recovery (50 μg/ml pre-treatment 45 min),also measured
"COc1ccc(/C=C/c2cc(O)cc(O)c2)cc1 [desoxyrhapontigenin, trans-3,5-dihydroxy-4′-methoxystilbene]",–,–,protection against dopamine-induced decreases in Ca2+ Recovery (25 μg/ml pre-treatment 45 min): offered no protection
"Oc1cc(O)cc(/C=C/c2ccc(O)c(O)c2)c1 [piceatannol, trans-3,4,3′,5′-tetrahydroxystilbene]",protected against the dopamine-induced decreases in Recovery,–,–
"COc1cc(O)cc(/C=C/c2ccc(O)cc2)c1 [pinostilbene, trans-3,4′-dihydroxy-5-methoxystilbene]",–,offered no protection,–
COc1cc(/C=C/c2ccc(O[C@@H]3O[C@H](CO)[C@@H](O)[C@H](O)[C@H]3O)cc2)cc(OC)c1 [pterostilbene glucoside],protected against the dopamine-induced decreases in Recovery,–,–
"COc1ccc(/C=C/c2cc(OC)cc(OC)c2)cc1 [resveratrol trimethylether, trans-3,5,4′-trimethyletherstilbene]",protected against the dopamine-induced decreases in Recovery,–,–
"Oc1ccc(/C=C/c2cc(O)cc(O)c2)cc1 [resveratrol, trans-3,5,4′-trihydroxystilbene]",–,offered no protection,–
